{"source": "patent US20180291378A1", "about": "“METHODS AND COMPOSITIONS FOR PROMOTING HAIR GROWTH” (THE TRUSTEES OF COLUMBIA UNIVERSITY IN THE CITY OF NEW YORK, priority 2015, published 2018)", "molecules": {"B1": {"name": "OSM: oncostatin M, secreted cytokine of the IL-6 family; recombinant mouse OSM used at 20 ng/ml (protein, UniProt P53347 25-206, looked up)", "Oncostatin-M": "NRGCSNSSSQLLSQLQNQANLTGNTESLLEPYIRLQNLNTPDLRAACTQHSVAFPSEDTLRQLSKPHFLSTVYTTLDRVLYQLDALRQKFLKTPAFPKLDSARHNILGIRNNVFCMARLLNHSLEIPEPTQTDSGASRSTTTPDVFNTKIGSCGFLWGYHRFMGSVGRVFREWDDGSTRSRR"}}, "key": {"C57/B6 mice in telogen": {"test_system": "C57/B6 mice in telogen", "assay": "Anagen induction by topical treatment of shaved wildtype mice in telogen", "assay_type": "in vivo, mouse", "settings": "for days of treatment until treated follicles re-initiate anagen: 7 week old mice, treated for 24 days; for mice displaying skin darkening and hair growth within 10 days of starting treatment: 8.5 week old mice treated for 5 days", "excerpt": "It was hypothesized that inhibition of JAK-STAT signaling promotes entry into the hair cycle in mice. To determine the onset of anagen, backskin hairs were trimmed with an electric shaver, and entry of HF into anagen was observed by the appearance of darkening skin and by hair regrowth. For the hair cycle experiments described in FIG. 1A, biopsies were taken from 2 mice/time point, and the experiment was replicated on 3 sets of littermates. For the experiments described in supp. FIGS. 1C&D, 3-4 mice were used per group (7 week vs. 8.5 week), and the experiment was replicated 3 times. […] The experiment presented in FIG. 1E was independently replicated once, with 3 mice/condition. The experiments described in FIG. 2A, 3 mice/genotype were utilized, and the experiment was replicated in 2 sets of littermates.\nRuxolitinib (INCB018424) was purchased from ChemieTek (catalog number CT-INCB). […] Hedgehog agonist (SAG) was purchased from EMD Millipore (catalog number 566660). JAK-STAT inhibitors were dissolved in DMSO and used at 2-3% for in vivo experiments, as indicated, and 400 nM for in vitro experiments. SAG was used at 120 uM, as described in Paladini et al (2)."}, "[1]": {"test_system": "hair germ compartment (P-cad+)", "assay": "Hair germ proliferation (Ki67 / EdU) in treated mouse skin", "assay_type": "in vivo", "experimental": "C57/B6 mice at 8.5 weeks of age were treated on half of the dorsal back with either topical vehicle control (left side) or JAK inhibitors (right side). Four hours post treatment each mouse received a single injection of 20 mg/kg 5-ethynyl-2′-deoxyuridine (EdU) (Invitrogen). One hour after injection, skin was harvested, fixed and stained using the Click-iT EdU Alexa Fluor 488 Imaging Kit (Life Technologies) per manufacturer's instructions, and co-stained for P-cadherin. Experiment was replicated once, with 1 mouse/time point."}, "[2]": {"test_system": "whole skin gene expression", "assay": "Whole skin microarray / IPA pathway analysis after 4 days of treatment", "assay_type": "in vivo, mouse", "settings": "8.5-week-old mice", "procedure": "Gene expression profiling was performed on whole skin biopsies from 12 B6/C57 female mice, 8.5 weeks of age. Biopsies were taken from dorsal skin at day 0 (T0) of the experiment. […] Quality control was performed using the affy analysisQC package from http://arrayanalysis.org/. […] Data were normalized using the GCRMA method as implemented in affyAnalysisQC. LIMMA was used with a multilevel model to identify genes that were differentially expressed between samples at T5 and T0 for each treatment group (DMSO, RUXO, and TOFA) using a threshold of fold change=1.5 and P<0.05.\nTotal RNA was extracted using the Qiagen RNAeasy micro kit. The Ovation RNA Amplification kit (Nugen) was used to generate amplified cDNA for microarray analysis. Arrays used were Affymetrix mouse 430 2.0, hybridized at the CUMC microarray facility. qPCR analysis was performed on the ABI 7300 cycler. Primers sequences available in Table 2."}, "[3]": {"test_system": "human fetal scalp skin grafts", "assay": "Human skin grafting assay on SCID mice", "assay_type": "in vivo", "settings": "daily topical application, 4 weeks", "experimental": "The mice were bandaged, and the grafts were left to recover for 6 weeks. […] Grafts were treated daily with topical application of vehicle control, ruxolitinib or tofacitinib. Treatment continued for 4 weeks, and pictures were taken every 3-5 days. Experiments were performed with skin from 3 separate donors. Quantification of hair growth was performed using ImageJ. Taking advantage of the fact that the donor hair was dark and the grafted mouse was white, the intensity of pigmentation was measured as a proxy for density of HF. Since control and experimental treatments were performed on the same graft, each image allows for the direct comparison between vehicle- and drug-treated skin. Darker regions are given a lower value than bright regions. Ratio was calculated by averaging the intensity values for the control treated side, by the intensity values for drug-treated side, accounting for pre-treatment differences in hair growth on the graft and for changes in hair density occurring over time."}, "[4]": {"test_system": "human adult scalp hair follicles", "assay": "Human hair follicle organ culture assay", "assay_type": "cell-based", "procedure": "Adult human follicles were microdissected from occipital skin under sterile conditions as previously described.\nMedia was replaced every 2 days, and images of individual follicles were taken every 2 days. Analysis of the growth rate of each follicle was performed using Image J."}, "human DP spheres": {"test_system": "human DP spheres", "assay": "Patch assay with dermal papilla spheres", "assay_type": "in vivo", "settings": "DP spheres treated at 400 nM", "procedure": "DP cells were grown in spheres as previously described (35). […] Each hanging drop contained 1000 cells, which aggregated to form DP spheroids after 24 hours. 48 hours after plating, 500 spheres in each condition were collected for use in the patch assay. Each experiment was performed with cells derived from a single individual, and four separate experiments were conducted. Keratinocytes were isolated from new born mice following the protocol outlined by Lichti et al (63). Cells were cultured in dkSFM for 2-4 days prior to being harvested for the patch assay. 1×10^6 newborn murine keratinocytes were then mixed together with 500 human DP spheres in each condition, and injected subdermally into dorsal skin of a nude mouse. 12 days after performing the injections, cysts had developed in the dermis, some which contained HF and hair fibers. These cysts were collected, photographed and then digested in 0.35% collagenase. The digested slurries were spread onto microscope slides and hair fiber counts were manually performed under a stereo microscope."}, "[5]": {"test_system": "human DP spheres gene expression", "assay": "DP spheres microarray / GEDI / gene set enrichment analysis", "assay_type": "cell-based", "procedure": "For the DP spheres microarray analysis, cells were prepared from three different donors, and Affymetrix human HG-U133 PLUS 2.0 arrays were hybridized at the CUMC genomics facility. Quality control and data normalization was performed as described above. For the organ culture experiment, 3 sets of repeats were performed, each times using HF derived from a single individual.\nFor the DP spheres microarray analysis, total RNA was extracted from DP spheres cultured in DMSO, ruxolitinib or tofacitinib from each of the three donors using the Qiagen RNAeasy micro kit. The Ovation RNA Amplification kit (Nugen) was used to generate amplified cDNA for microarray analysis. LIMMA was used with a linear model treating both treatment and the blocking factor, donor, as fixed effects. Contrasts of interest between treatments were used to identify genes that were differentially expressed between pairs of treatments for the treatments DMSO, RUXO, and TOFA. A threshold of absolute fold change=1.5 and P<0.05 was employed. For GSEA, the HG_U133_Plus_2.0 chip annotation file downloaded from ftp.broad.mit.edullpub/gsedannotations/was used to annotate the Affymetrix ProbeSets and to remove duplicate ProbeSets for a given Gene Symbol. Duplicates were removed based on the maximum absolute fold-change observed for each Gene Symbol. Pre-ranked gene lists were generated for each treatment contrast of interest, using the moderated t-statistics returned by LIMMA. GSEA was performed on these lists to identify KEGG pathways overrepresented in each list (ES p-value 0.01).\nThe gene set enrichment analysis comparing tofacitinib-treated and control cells was performed by generating a list of all detected transcripts ranked by differential expression (p-value), and direction of fold change (up or down). This ranked list was tested for enrichment of the union of territories 2 and 4 (gene list provided in Table 3) as described previously (35). A null distribution for computing the normalized enrichment score (NES) and its associated p-value was obtained by label shuffling to randomize the gene rankings. These randomized sets were then used to compute null enrichment scores over 5000 iterations to generate a null distribution. The observed leading edge enrichment score was normalized to this distribution and a 2-tailed p-value was generated for this NES."}, "STAT1, STAT3 and STAT5": {"test_system": "STAT1, STAT3 and STAT5", "assay": "OSM-induced STAT activation in cultured keratinocytes", "assay_type": "cell-based, mouse"}, "STAT3 and STAT5": {"test_system": "STAT3 and STAT5", "assay": "STAT3 and STAT5 activation in whole skin treated in vivo", "set-up": "species or system mouse"}, "mouse keratinocytes": {"test_system": "mouse keratinocytes", "assay": "Colony forming assay with mouse keratinocytes harvested at telogen", "assay_type": "cell-based"}, "OSM-Rβ [6]": {"test_system": "OSM-Rβ", "assay": "OSM-Rβ expression in mouse skin treated in vivo during telogen", "settings": "whole skin biopsies daily over 5 days of treatment"}, "OSM-Rβ [7]": {"test_system": "OSM-Rβ", "assay": "OSM-Rβ expression in cultured mouse keratinocytes", "assay_type": "cell-based", "settings": "recombinant mouse OSM at 20 ng/ml"}}, "data": [{"molecule": "N#CC[C@H](C1CCCC1)n1cc(-c2ncnc3[nH]ccc23)cn1", "note": "[ruxolitinib]", "values": [{"measurement": "days of treatment until treated follicles re-initiate anagen", "setting": "C57/B6 mice in telogen", "value": "≤ 18", "unit": "days"}, {"measurement": "mice displaying skin darkening and hair growth within 10 days of starting treatment", "setting": "C57/B6 mice in telogen", "value": "~90", "unit": "%"}]}, {"molecule": "C[C@@H]1CCN(C(=O)CC#N)C[C@@H]1N(C)c1ncnc2[nH]ccc12", "note": "[tofacitinib]", "values": [{"measurement": "days of treatment until treated follicles re-initiate anagen", "setting": "C57/B6 mice in telogen", "value": "≤ 21", "unit": "days"}, {"measurement": "mice displaying skin darkening and hair growth within 10 days of starting treatment", "setting": "C57/B6 mice in telogen", "value": "~90", "unit": "%"}, {"measurement": "re-entry into the hair cycle", "setting": "C57/B6 mice in telogen; topical, half of dorsal back, treated three weeks", "value": "rapid re-entry into the hair cycle, with kinetics similar to the Shh agonist"}, {"measurement": "Edu+ cells within the hair germ (P-cadherin+) compartment", "setting": "[1]; after three treatments, skin harvested 5 hours after treatment", "value": "clearly visible"}, {"measurement": "proliferation within the hair germ compartment (P-cad+)", "setting": "[1]; mice in telogen treated 4 days", "value": "Significant proliferation"}, {"measurement": "expression of hair cycle regulators Shh and Prom1", "setting": "[2]; T5 vs T0", "value": "significantly upregulated"}, {"measurement": "pathways enriched by only one of the drug treatments", "setting": "[2]; T5 vs T0", "value": "pathways involved in cell motility and migration, such as Rho and integrin signaling"}, {"measurement": "pathways enriched in both drug treatments (IPA)", "setting": "[2]; T5 vs T0, not in vehicle", "value": "melanogenesis and the Wnt pathway were enriched"}, {"measurement": "HF growth on graft compared to controls", "setting": "[3]", "value": "denser HF growth"}, {"measurement": "length of hair shafts / rate of hair elongation", "setting": "[4]; 400 nM, follicles from a single donor", "value": "significantly increased length of hair shafts"}, {"measurement": "growth rate of anagen, repeat experiment", "setting": "[4]; follicles from two individuals, did not reach statistical significance", "value": "increased the growth rate of anagen"}, {"measurement": "inductivity of DP spheres", "setting": "human DP spheres", "value": "did enhance inductivity"}, {"measurement": "size and numbers of HFs induced", "setting": "human DP spheres; with neonatal mouse keratinocytes in nude mice", "value": "larger and significantly greater numbers of HFs"}, {"measurement": "expression of LEF1, WIF1 and CD133", "setting": "[5]", "value": "upregulate"}, {"measurement": "expression of TGβ2, BMP6 and LEF1", "setting": "[5]", "value": "upregulated"}, {"measurement": "gene set enrichment of territory T4", "setting": "[5]; treated vs untreated spheres", "value": "significantly enriched"}, {"measurement": "gene set enrichment of territory T2", "setting": "[5]; treated vs untreated spheres, overlap only marginally significant", "value": "enriched"}, {"measurement": "expression of FGFR1, ACVRL1, IGFR1, OSMR and PTGFR (region 1)", "setting": "[5]; vs control", "value": "repressed in both treatments but lower in tofacitinib treatment"}, {"measurement": "expression of members of the TGFβ pathway and the BMP pathway (regions 3 and 4)", "setting": "[5]; vs control", "value": "upregulated"}, {"measurement": "expression of pro-apoptotic genes BAX, BCL2L11 and CASP12 (region 2)", "setting": "[5]; vs control", "value": "downregulated"}, {"measurement": "key regulators of the WNT pathway (LEF1) and members of the NOTCH pathway", "setting": "[5]; vs control", "value": "overrepresented"}, {"measurement": "effect on OSM-induced STAT1, STAT3 and STAT5 activation", "setting": "STAT1, STAT3 and STAT5; in vitro cultured keratinocytes", "value": "efficiently abrogated"}, {"measurement": "STAT3 and STAT5 activation", "setting": "STAT3 and STAT5", "value": "effective inhibition"}, {"measurement": "effect on OSM growth inhibition", "setting": "mouse keratinocytes; added to OSM", "value": "reversed partially"}, {"measurement": "number of keratinocyte colonies", "setting": "mouse keratinocytes; drug alone", "value": "increase the number of keratinocyte colonies"}, {"measurement": "OSM-Rβ expression, qRT-PCR", "setting": "OSM-Rβ [6]", "value": "Downregulation"}]}, {"molecule": "B1", "values": [{"measurement": "activation of STAT1, STAT3 and STAT5 transcription factors", "setting": "STAT1, STAT3 and STAT5; within 10 minutes of OSM treatment", "value": "activated"}, {"measurement": "effect on keratinocyte colony growth", "setting": "mouse keratinocytes; OSM alone", "value": "growth inhibitory effect"}, {"measurement": "expression of OSM-Rβ", "setting": "OSM-Rβ [7]", "value": "upregulated"}]}]}
